Measured values from the supplement of paper PMC10307832.

Legend:
Assay in all cases: relative viability (nuclei count vs DMSO), 5 days (fraction); higher = more cells survive
ChaGo-K-1 = tested on: ChaGo-K-1
In short: (§1)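 Relative viability divides the nuclei count in treated wells by that in vehicle wells. Lung cancer cell lines were seeded in 1536-well plates, dosed by pin tool the next day, and fixed and stained after 5 days in one step with final 0.05% Triton X-100, 1% formaldehyde and 1 ug/ml Hoechst. Dosing was a single drug or a fixed anchor-drug dose plus five library-drug doses (not always all listed) in √10 steps, and values are medians of duplicate plates imaged at 4×.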

NCI-H661 = tested on: NCI-H661
In short: as §1

NCI-H358 = tested on: NCI-H358
In short: as §1

NCI-H2342 = tested on: NCI-H2342
In short: as §1

LU99A = tested on: LU99A
In short: as §1

BEN = tested on: BEN
In short: as §1

NCI-H596 = tested on: NCI-H596
In short: as §1

LCLC-97TM1 = tested on: LCLC-97TM1
In short: as §1

NCI-H1651 = tested on: NCI-H1651
In short: as §1

NCI-H2087 = tested on: NCI-H2087
In short: as §1

LC-2-ad = tested on: LC-2-ad
In short: as §1

NCI-H1666 = tested on: NCI-H1666
In short: as §1

HCC-15 = tested on: HCC-15
In short: as §1

HCC-78 = tested on: HCC-78
In short: as §1

NCI-H1944 = tested on: NCI-H1944
In short: as §1

NCI-H650 = tested on: NCI-H650
In short: as §1

NCI-H322M = tested on: NCI-H322M
In short: as §1

PC-3 [JPC-3] = tested on: PC-3 [JPC-3]
In short: as §1

UMC-11 = tested on: UMC-11
In short: as §1

NCI-H838 = tested on: NCI-H838
In short: as §1

LXF-289 = tested on: LXF-289
In short: as §1

SK-MES-1 = tested on: SK-MES-1
In short: as §1

LK-2 = tested on: LK-2
In short: as §1

CC1(C)CCC(c2ccc(Cl)cc2)=C(CN2CCN(c3ccc(C(=O)NS(=O)(=O)c4ccc(N[C@H](CCN5CCOCC5)CSc5ccccc5)c(S(=O)(=O)C(F)(F)F)c4)cc3)CC2)C1 [Navitoclax] + Cc1nc(Nc2ncc(C(=O)Nc3c(C)cccc3Cl)s2)cc(N2CCN(CCO)CC2)n1 [Dasatinib] (partner 0.075 µM)
relative viability (ChaGo-K-1; first compound 0.005 µM): 0.479
relative viability (ChaGo-K-1; first compound 0.01581 µM): 0.627
relative viability (ChaGo-K-1; first compound 0.05 µM): 0.322
relative viability (ChaGo-K-1; first compound 0.1581 µM): 0.639
relative viability (ChaGo-K-1; first compound 0.5 µM): 0.666
relative viability (NCI-H661; first compound 0.005 µM): 0.621
relative viability (NCI-H661; first compound 0.01581 µM): 1.11
relative viability (NCI-H661; first compound 0.05 µM): 0.901
relative viability (NCI-H661; first compound 0.1581 µM): 0.933
relative viability (NCI-H661; first compound 0.5 µM): 0.926
relative viability (NCI-H358; first compound 0.005 µM): 0.188
relative viability (NCI-H358; first compound 0.01581 µM): 0.219
relative viability (NCI-H358; first compound 0.05 µM): 0.142
relative viability (NCI-H358; first compound 0.1581 µM): 0.165
relative viability (NCI-H358; first compound 0.5 µM): 0.199
relative viability (NCI-H2342; first compound 0.005 µM): 0.32
relative viability (NCI-H2342; first compound 0.01581 µM): 0.309
relative viability (NCI-H2342; first compound 0.05 µM): 0.27
relative viability (NCI-H2342; first compound 0.1581 µM): 0.278
relative viability (NCI-H2342; first compound 0.5 µM): 0.31
relative viability (LU99A; first compound 0.005 µM): 0.542
relative viability (LU99A; first compound 0.01581 µM): 0.879
relative viability (LU99A; first compound 0.05 µM): 0.418
relative viability (LU99A; first compound 0.1581 µM): 0.618
relative viability (LU99A; first compound 0.5 µM): 0.821
relative viability (BEN; first compound 0.005 µM): 0.301
relative viability (BEN; first compound 0.01581 µM): 0.312
relative viability (BEN; first compound 0.05 µM): 0.333
relative viability (BEN; first compound 0.1581 µM): 0.297
relative viability (BEN; first compound 0.5 µM): 0.0643
relative viability (NCI-H596; first compound 0.005 µM): 0.734
relative viability (NCI-H596; first compound 0.01581 µM): 0.68
relative viability (NCI-H596; first compound 0.1581 µM): 0.603
relative viability (NCI-H596; first compound 0.5 µM): 0.438
relative viability (LCLC-97TM1; first compound 0.005 µM): 0.822
relative viability (LCLC-97TM1; first compound 0.01581 µM): 0.939
relative viability (LCLC-97TM1; first compound 0.05 µM): 0.648
relative viability (LCLC-97TM1; first compound 0.1581 µM): 0.825
relative viability (LCLC-97TM1; first compound 0.5 µM): 0.826
relative viability (NCI-H1651; first compound 0.005 µM): 0.37
relative viability (NCI-H1651; first compound 0.01581 µM): 0.41
relative viability (NCI-H1651; first compound 0.05 µM): 0.308
relative viability (NCI-H1651; first compound 0.1581 µM): 0.455
relative viability (NCI-H1651; first compound 0.5 µM): 0.456
relative viability (NCI-H2087; first compound 0.005 µM): 0.901
relative viability (NCI-H2087; first compound 0.01581 µM): 0.88
relative viability (NCI-H2087; first compound 0.1581 µM): 0.887
relative viability (NCI-H2087; first compound 0.5 µM): 0.793
relative viability (LC-2-ad; first compound 0.005 µM): 0.442
relative viability (LC-2-ad; first compound 0.01581 µM): 0.812
relative viability (LC-2-ad; first compound 0.05 µM): 0.691
relative viability (LC-2-ad; first compound 0.1581 µM): 0.406
relative viability (LC-2-ad; first compound 0.5 µM): 0.342
relative viability (NCI-H1666; first compound 0.005 µM): 0.647
relative viability (NCI-H1666; first compound 0.01581 µM): 0.853
relative viability (NCI-H1666; first compound 0.05 µM): 0.755
relative viability (NCI-H1666; first compound 0.1581 µM): 0.833
relative viability (NCI-H1666; first compound 0.5 µM): 0.766
relative viability (HCC-15; first compound 0.005 µM): 0.619
relative viability (HCC-15; first compound 0.01581 µM): 0.643
relative viability (HCC-15; first compound 0.05 µM): 0.577
relative viability (HCC-15; first compound 0.1581 µM): 0.572
relative viability (HCC-15; first compound 0.5 µM): 0.392
relative viability (HCC-78; first compound 0.005 µM): 0.405
relative viability (HCC-78; first compound 0.01581 µM): 0.351
relative viability (HCC-78; first compound 0.1581 µM): 0.403
relative viability (HCC-78; first compound 0.5 µM): 0.381
relative viability (NCI-H1944; first compound 0.005 µM): 0.235
relative viability (NCI-H1944; first compound 0.01581 µM): 0.235
relative viability (NCI-H1944; first compound 0.05 µM): 0.268
relative viability (NCI-H1944; first compound 0.1581 µM): 0.282
relative viability (NCI-H1944; first compound 0.5 µM): 0.398
relative viability (NCI-H650; first compound 0.005 µM): 0.456
relative viability (NCI-H650; first compound 0.01581 µM): 0.473
relative viability (NCI-H650; first compound 0.05 µM): 0.463
relative viability (NCI-H650; first compound 0.1581 µM): 0.477
relative viability (NCI-H650; first compound 0.5 µM): 0.459
relative viability (NCI-H322M; first compound 0.005 µM): 0.263
relative viability (NCI-H322M; first compound 0.01581 µM): 0.24
relative viability (NCI-H322M; first compound 0.05 µM): 0.252
relative viability (NCI-H322M; first compound 0.1581 µM): 0.271
relative viability (NCI-H322M; first compound 0.5 µM): 0.324
relative viability (PC-3 [JPC-3]; first compound 0.005 µM): 1.02
relative viability (PC-3 [JPC-3]; first compound 0.01581 µM): 1.07
relative viability (PC-3 [JPC-3]; first compound 0.05 µM): 0.773
relative viability (PC-3 [JPC-3]; first compound 0.1581 µM): 0.97
relative viability (PC-3 [JPC-3]; first compound 0.5 µM): 0.858
relative viability (UMC-11; first compound 0.005 µM): 0.451
relative viability (UMC-11; first compound 0.01581 µM): 0.464
relative viability (UMC-11; first compound 0.05 µM): 0.502
relative viability (UMC-11; first compound 0.1581 µM): 0.471
relative viability (UMC-11; first compound 0.5 µM): 0.324
relative viability (NCI-H838; first compound 0.005 µM): 0.267
relative viability (NCI-H838; first compound 0.01581 µM): 0.334
relative viability (NCI-H838; first compound 0.05 µM): 0.26
relative viability (NCI-H838; first compound 0.1581 µM): 0.238
relative viability (NCI-H838; first compound 0.5 µM): 0.36
relative viability (LXF-289; first compound 0.005 µM): 0.239
relative viability (LXF-289; first compound 0.01581 µM): 0.308
relative viability (LXF-289; first compound 0.05 µM): 0.193
relative viability (LXF-289; first compound 0.1581 µM): 0.256
relative viability (LXF-289; first compound 0.5 µM): 0.201
relative viability (SK-MES-1; first compound 0.005 µM): 0.324
relative viability (SK-MES-1; first compound 0.01581 µM): 0.466
relative viability (SK-MES-1; first compound 0.05 µM): 0.395
relative viability (SK-MES-1; first compound 0.1581 µM): 0.393
relative viability (SK-MES-1; first compound 0.5 µM): 0.43
relative viability (LK-2; first compound 0.005 µM): 0.319
relative viability (LK-2; first compound 0.01581 µM): 0.368
relative viability (LK-2; first compound 0.05 µM): 0.309
relative viability (LK-2; first compound 0.1581 µM): 0.202
relative viability (LK-2; first compound 0.5 µM): 0.37
